In ChEMBL document CHEMBL3745711, “Discovery of potent and orally bioavailable inhibitors of Human Uric Acid Transporter 1 (hURAT1) and binding mode prediction using homology model” (Bioorg Med Chem Lett, 2016):

Assays:
[1] = target: T1, Solute carrier family 22 member 12 (Homo sapiens, UniProt Q96S37); assay: Inhibition of human URAT1 expressed in HEK293 cells assessed as [14C]uric acid uptake after 12 mins by scintillation counter; type: cell-based
T1 sequence (Q96S37 whole entry): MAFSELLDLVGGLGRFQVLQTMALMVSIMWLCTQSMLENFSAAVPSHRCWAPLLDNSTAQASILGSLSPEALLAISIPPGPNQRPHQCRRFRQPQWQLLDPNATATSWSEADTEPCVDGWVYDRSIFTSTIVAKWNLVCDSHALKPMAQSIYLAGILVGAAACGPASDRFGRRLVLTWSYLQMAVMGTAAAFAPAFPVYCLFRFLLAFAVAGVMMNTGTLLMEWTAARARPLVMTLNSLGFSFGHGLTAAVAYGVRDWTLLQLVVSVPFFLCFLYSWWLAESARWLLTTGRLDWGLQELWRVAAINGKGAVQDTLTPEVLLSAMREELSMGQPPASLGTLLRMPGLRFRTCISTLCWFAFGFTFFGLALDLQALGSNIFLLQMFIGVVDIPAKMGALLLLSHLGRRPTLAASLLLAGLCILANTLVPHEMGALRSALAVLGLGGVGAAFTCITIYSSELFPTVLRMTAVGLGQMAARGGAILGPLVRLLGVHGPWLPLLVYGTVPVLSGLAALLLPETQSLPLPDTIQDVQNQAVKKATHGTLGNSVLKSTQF

[2] = Intrinsic clearance in monkey liver microsomes; type: ADME, Macaca mulatta; details: rhesus monkey, read-out: CLH
[3] = Mean residence time in Sprague-Dawley rat at 3 mg/kg, po by LC-MS/MS analysis; type: ADME, organism-based; details: in vivo
[4] = Half life in Sprague-Dawley rat at 3 mg/kg, po by LC-MS/MS analysis; type: ADME, organism-based; details: in vivo
[5] = Apparent volume of distribution in Sprague-Dawley rat at 3 mg/kg, po by LC-MS/MS analysis; type: ADME, organism-based; details: in vivo, read-out: Vz/F
[6] = Plasma protein binding in human; type: ADME, cell-free; details: read-out: PPB (converted)
[7] = Cmax in Sprague-Dawley rat at 3 mg/kg, po by LC-MS/MS analysis; type: ADME, organism-based; design: dose 3 mg/kg, route oral; details: in vivo
[8] = Half life in human liver microsomes; type: ADME
[9] = Clearance in Sprague-Dawley rat at 3 mg/kg, po by LC-MS/MS analysis; type: ADME, organism-based; details: in vivo
[10] = Half life in rat liver microsomes; type: ADME
[11] = AUC (0 to t) in Sprague-Dawley rat at 3 mg/kg, po by LC-MS/MS analysis; type: ADME, organism-based; details: in vivo
[12] = Intrinsic clearance in human liver microsomes; type: ADME; details: read-out: CLH
[13] = Intrinsic clearance in rat liver microsomes; type: ADME; details: read-out: CLH
[14] = Tmax in Sprague-Dawley rat at 3 mg/kg, po by LC-MS/MS analysis; type: ADME, organism-based; details: in vivo
[15] = Half life in monkey liver microsomes; type: ADME, Macaca mulatta; details: rhesus monkey
Canis familiaris [16] = assay: AUC (0 to t) in beagle dog at 5 mg/kg, po by LC-MS/MS analysis; type: ADME, organism-based, Canis lupus familiaris; details: in vivo
[17] = Clearance in cynomolgus monkey at 10 mg/kg, po by LC-MS/MS analysis; type: ADME, organism-based, Macaca fascicularis; details: in vivo
[18] = Tmax in cynomolgus monkey at 10 mg/kg, po by LC-MS/MS analysis; type: ADME, organism-based, Macaca fascicularis; details: in vivo
[19] = Cmax in Sprague-Dawley rat at 3 mg/kg, iv by LC-MS/MS analysis; type: ADME, organism-based; design: dose 3 mg/kg, route intravenous; details: in vivo
[20] = Apparent volume of distribution in cynomolgus monkey at 10 mg/kg, po by LC-MS/MS analysis; type: ADME, organism-based, Macaca fascicularis; details: in vivo, read-out: Vz/F
Rattus norvegicus [21] = assay: Apparent volume of distribution in Sprague-Dawley rat at 3 mg/kg, iv by LC-MS/MS analysis; type: ADME, organism-based; details: in vivo
[22] = Mean residence time in beagle dog at 5 mg/kg, po by LC-MS/MS analysis; type: ADME, organism-based, Canis lupus familiaris; details: in vivo
[23] = Cmax in beagle dog at 1 mg/kg, iv by LC-MS/MS analysis; type: ADME, organism-based, Canis lupus familiaris; design: dose 1 mg/kg, route intravenous; details: in vivo
[24] = Toxicity in Sprague-Dawley rat administered once daily for 1 week; type: organism-based; details: in vivo
Cynomolgus monkey = assay: Decrease in uric acid level in cynomolgus monkey serum administered as single oral dose measured after 24 hrs; type: functional, organism-based; details: Macaca fascicularis
[25] = Cmax in cynomolgus monkey at 10 mg/kg, po by LC-MS/MS analysis; type: ADME, organism-based, Macaca fascicularis; design: dose 10 mg/kg, route oral; details: in vivo
[26] = Cmax in beagle dog at 5 mg/kg, po by LC-MS/MS analysis; type: ADME, organism-based, Canis lupus familiaris; design: dose 5 mg/kg, route oral; details: in vivo
[27] = Clearance in Sprague-Dawley rat at 3 mg/kg, iv by LC-MS/MS analysis; type: ADME, organism-based; details: in vivo
[28] = Bioavailability in beagle dog at 1 mg/kg, iv by LC-MS/MS analysis; type: ADME, organism-based, Canis lupus familiaris; details: in vivo
Canis familiaris [29] = assay: AUC (0 to t) in beagle dog at 1 mg/kg, iv by LC-MS/MS analysis; type: ADME, organism-based, Canis lupus familiaris; details: in vivo
Canis familiaris [30] = assay: Half life in beagle dog at 5 mg/kg, po by LC-MS/MS analysis; type: ADME, organism-based, Canis lupus familiaris; details: in vivo
[31] = Mean residence time in Sprague-Dawley rat at 3 mg/kg, iv by LC-MS/MS analysis; type: ADME, organism-based; details: in vivo
Canis familiaris [32] = assay: Half life in beagle dog at 1 mg/kg, iv by LC-MS/MS analysis; type: ADME, organism-based, Canis lupus familiaris; details: in vivo
[33] = Half life in Sprague-Dawley rat at 3 mg/kg, iv by LC-MS/MS analysis; type: ADME, organism-based; details: in vivo
[34] = Half life in cynomolgus monkey at 10 mg/kg, po by LC-MS/MS analysis; type: ADME, organism-based, Macaca fascicularis; details: in vivo
[35] = Bioavailability in Sprague-Dawley rat at 3 mg/kg, iv by LC-MS/MS analysis; type: ADME, organism-based; details: in vivo
Canis familiaris [36] = assay: Apparent volume of distribution in beagle dog at 1 mg/kg, iv by LC-MS/MS analysis; type: ADME, organism-based, Canis lupus familiaris; details: in vivo
Canis familiaris [37] = assay: Apparent volume of distribution in beagle dog at 5 mg/kg, po by LC-MS/MS analysis; type: ADME, organism-based, Canis lupus familiaris; details: in vivo
[38] = Mean residence time in cynomolgus monkey at 10 mg/kg, po by LC-MS/MS analysis; type: ADME, organism-based, Macaca fascicularis; details: in vivo
[39] = Mean residence time in beagle dog at 1 mg/kg, iv by LC-MS/MS analysis; type: ADME, organism-based, Canis lupus familiaris; details: in vivo
[40] = AUC (0 to t) in cynomolgus monkey at 10 mg/kg, po by LC-MS/MS analysis; type: ADME, organism-based, Macaca fascicularis; details: in vivo
Rattus norvegicus [41] = assay: Toxicity in Sprague-Dawley rat assessed as no adverse effect at 100 mg/kg once daily for 1 week; type: organism-based; details: in vivo, 168 h
[42] = AUC (0 to t) in Sprague-Dawley rat at 3 mg/kg, iv by LC-MS/MS analysis; type: ADME, organism-based; details: in vivo
[43] = Tmax in beagle dog at 5 mg/kg, po by LC-MS/MS analysis; type: ADME, organism-based, Canis lupus familiaris; details: in vivo

Nc1ccc2nccc(SC3(C(=O)O)CCC3)c2c1
IC50 [1]: 1790 nM

O=C1COc2cccc(SC3(C(=O)O)CCC3)c2N1
IC50 [1]: > 10000 nM

O=C(O)C1(Sc2ncnc3ccccc23)CCC1
IC50 [1]: > 10000 nM

O=C(O)C1(Sc2ccnc3ccc(-c4ccc(C(F)(F)F)cc4)cc23)CCC1
IC50 [1]: 1750 nM

O=C(O)C1(Sc2ccnc3ccc(-c4cccc(F)c4)cc23)CCC1
IC50 [1]: 1190 nM

O=C(O)C1(Sc2ccnc3ccc(O)cc23)CCC1
IC50 [1]: > 10000 nM

O=C(O)C1(Sc2ccnc3ccc(Br)cc23)CCCC1
IC50 [1]: 324 nM

CC(=O)Nc1ccc2nccc(SC3(C(=O)O)CCC3)c2c1
IC50 [1]: > 10000 nM

O=C(O)C1(Sc2ccnc3ccccc23)CCC1
microsomal CLint [2]: 3 µL/min/mg
IC50 [1]: 448 nM
MRT [3]: 3.2 h
half-life [4]: 2.8 h
Vd/F [5]: 0.69 L/kg
fraction unbound [6]: 0.002
Cmax [7]: 8800 ng/mL
half-life [8]: 2.02 h
CL/F [9]: 2.5 mL/min/kg
half-life [10]: 6.88 h
AUC(0-t) [11]: 20700 ng·h/mL
microsomal CLint [12]: 7.2 µL/min/mg
microsomal CLint [13]: 2.1 µL/min/mg
Tmax [14]: 0.5 h
half-life [15]: 4.82 h

O=C(O)C1(Sc2ccnc3ccc(OCCO)cc23)CCC1
IC50 [1]: 1890 nM

O=C(O)C1(Sc2ccnc3ccc(-c4ccccc4F)cc23)CCC1
IC50 [1]: 333 nM

O=C(Nc1ccc2nccc(SC3(C(=O)O)CCC3)c2c1)C1CC1
IC50 [1]: > 10000 nM

O=C(O)C1(Sc2ccnc3ccc(Br)cc23)CC1
IC50 [1]: 352 nM

CNC(=O)COc1ccc2nccc(SC3(C(=O)O)CCC3)c2c1
IC50 [1]: > 10000 nM

O=C(O)C1(Sc2ccnc3ccc(CO)cc23)CCC1
IC50 [1]: 1260 nM

O=C(O)C1(Sc2ccnc3cccnc23)CCC1
IC50 [1]: > 10000 nM

O=C(O)C1(Oc2ncnc3ccccc23)CCC1
IC50 [1]: > 10000 nM

O=C(O)C1(Sc2ccnc3ccc(Br)cc23)CCC1 [SHR-4640]
AUCt (Canis familiaris [16]): 18600 ng·h/mL
microsomal CLint [2]: 2.6 µL/min/mg
CL/F [17]: 1.3 mL/min/kg
IC50 [1]: 33.7 nM
Tmax [18]: 0.5 h
Cmax [19]: 99700 ng/mL
Vd/F [20]: 0.8 L/kg
Vz/F (Rattus norvegicus [21]): 0.12 L/kg
MRT [3]: 6.8 h
MRT [22]: 5 h
Cmax [23]: 4700 ng/mL
half-life [4]: 4.4 h
MTD at 168 h [24]: 300 mg/kg
inhibition (Cynomolgus monkey): Dose-dependent effect
Cmax [25]: 46900 ng/mL
Vd/F [5]: 0.14 L/kg
fraction unbound [6]: 0.013
Cmax [26]: 7700 ng/mL
clearance [27]: 0.29 mL/min/kg
bioavailability [28]: 86.1%
AUCt (Canis familiaris [29]): 4400 ng·h/mL
t1/2 (Canis familiaris [30]): 5.2 h
MRT [31]: 6 h
t1/2 (Canis familiaris [32]): 4.7 h
half-life [33]: 4.9 h
Cmax [7]: 20500 ng/mL
half-life [8]: 13.6 h
CL/F [9]: 0.39 mL/min/kg
half-life [10]: 3.28 h
half-life [34]: 7.3 h
bioavailability [35]: 74.8%
AUC(0-t) [11]: 146000 ng·h/mL
microsomal CLint [12]: 1.1 µL/min/mg
microsomal CLint [13]: 4.4 µL/min/mg
Vz/F (Canis familiaris [36]): 1.6 L/kg
Vz/F (Canis familiaris [37]): 2.1 L/kg
Tmax [14]: 1.2 h
MRT [38]: 6.3 h
half-life [15]: 5.8 h
MRT [39]: 3.2 h
AUC(0-t) [40]: 132000 ng·h/mL
Activity (Rattus norvegicus [41]): Non-toxic
AUC(0-t) [42]: 193000 ng·h/mL
Tmax [43]: 0.5 h

O=C(O)C1(Sc2ccnc3ccncc23)CCC1
IC50 [1]: 1930 nM

O=C(O)C1(Sc2nccc3ncccc23)CCC1
IC50 [1]: > 10000 nM

N#CCCc1ccc2nccc(SC3(C(=O)O)CCC3)c2c1
IC50 [1]: 2760 nM

O=C(O)C1(Sc2ccnc3ccc(C(F)(F)F)cc23)CCC1
microsomal CLint [2]: 4.9 µL/min/mg
half-life [4]: 8.8 h
Vd/F [5]: 1.2 L/kg
fraction unbound [6]: 0.001
Cmax [7]: 2700 ng/mL
half-life [8]: 4.62 h
CL/F [9]: 2 mL/min/kg
half-life [10]: 3.08 h
AUC(0-t) [11]: 38200 ng·h/mL
microsomal CLint [12]: 3.3 µL/min/mg
microsomal CLint [13]: 4.7 µL/min/mg
Tmax [14]: 1 h
half-life [15]: 3.15 h
